Measurements published in patent US6686394B1, “Aryl-chloro-ethyl ureas” (Sovar, Societe en Commandite, priority 1999, dated 2004).

Experiments:
CHO = assay: Cytotoxicity assay G50, MTT or resazurin (Example 29); format: cell-based, Chinese Hamster; conditions: Cricetulus griseus; cell line CHO
Protocol: (§1) The MTT assay was as described above in Example 1. The Resazurin assay was performed as follows:
(§2) Aspirate the supernatant (cell suspension: centrifuge first)
(§3) Add 100 μL NaCl 0.9% (saline)
(§4) Add 50 μL RZ (resazurin 125 μg/ml/PBS: RPMI without FBS; 1:4)
(§5) Collect fluorescence data at different time.

MCF-7 = assay: as above; format: cell-based; conditions: Homo sapiens, MCF7; cell line MCF-7
Protocol: as §1, §2, §3, §4, §5

K562 = assay: as above; format: cell-based; conditions: Homo sapiens; cell line K562
Protocol: as §1, §2, §3, §4, §5

L1210 = assay: as above; format: cell-based; conditions: Mus musculus; cell line L1210
Protocol: as §1, §2, §3, §4, §5

T24 = assay: as above; format: cell-based; conditions: Homo sapiens, T-24; cell line T24
Protocol: as §1, §2, §3, §4, §5

MDA-MB-231 [1] = assay: as above; format: cell-based; conditions: Homo sapiens; cell line MDA-MB-231
Protocol: (§6) Cell culture. Tumor cell lines (B16-F0, Caco-2, DU-145, HT-29, MDA-MB-231 and other cell lines described so far in the patent application) were obtained from the American Type Culture Collection (ATCC HTB-26; Bethesda, Md.). Cells were grown in RPMI 1640 medium supplemented with 10% fetal bovine serum (Hyclone, Road Logan, Utah) and were cultured in a humidified atmosphere at 37° C. in 5% CO2.
(§7) Drugs: All drugs were dissolved in DMSO and the final concentration of DMSO in the culture medium was maintained at 0.5% (v/v).
(§8) Cytotoxiciy assays. At day-1, tumor cells in suspension in 100 μl were plated in microtiter plates (96 wells). On day-0, tumor cells were treated by addition of escalating concentrations of the drug (100 μl solution). On that day, the number of living cells was determined in wells that were untreated. The number of living cells is determined using either MTT or resazurin assays. Growth inhibition activity of these compounds was expressed as the concentration of CAU inhibiting cell growth by 50% G50 in the following table
as §1, §2, §3, §4, §5

HT-29 [2] = assay: as above; format: cell-based; conditions: Homo sapiens; cell line HT-29
Protocol: as §6, §7, §8, §1, §2, §3, §4, §5

DU-145 [3] = assay: as above; format: cell-based; conditions: Homo sapiens; cell line DU-145
Protocol: as §6, §7, §8, §1, §2, §3, §4, §5

Caco-2 [4] = assay: as above; format: cell-based; conditions: Homo sapiens; cell line Caco-2
Protocol: as §6, §7, §8, §1, §2, §3, §4, §5

B16-F0 [5] = assay: as above; format: cell-based; conditions: Mus musculus, B16F0; cell line B16-F0
Protocol: as §6, §7, §8, §1, §2, §3, §4, §5

MDA-MB-231 [6] = assay: Cytotoxicity assay C50/G50, MTT or resazurin (Example 16); format: cell-based, human; conditions: for IC50: Homo sapiens, day-3, read-out: G50 (concentration inhibiting cell growth by 50%); for C50 (concentration needed to kill 50% of the cellular population present at the beginning): day-3
Protocol: as §6, §7
as §8, with “This was performed in order to be able to evaluate the toxic concentration of the drug needed to kill 50% of the cellular population present at the beginning of the experiments. This value is represented by C50 in the table. At day-3, the” for “The”
as §1, §2, §3
(§9) Add 50 μL RZ (resazurin 125 μg/ml/PBS: RPMI without FBS; 1:4) Incubate at 37° C.
as §5

HT-29 [7] = assay: as above; format: cell-based, human; conditions: for IC50: Homo sapiens, day-3, read-out: G50 (concentration inhibiting cell growth by 50%); for C50 (concentration needed to kill 50% of the cellular population present at the beginning): day-3
Protocol: as §6, §7
as §8, with “This was performed in order to be able to evaluate the toxic concentration of the drug needed to kill 50% of the cellular population present at the beginning of the experiments. This value is represented by C50 in the table. At day-3, the” for “The”
as §1, §2, §3, §9, §5

DU-145 [8] = assay: as above; format: cell-based; conditions: for IC50: Homo sapiens, day-3, read-out: G50 (concentration inhibiting cell growth by 50%); for C50 (concentration needed to kill 50% of the cellular population present at the beginning): day-3
Protocol: as §6, §7
as §8, with “This was performed in order to be able to evaluate the toxic concentration of the drug needed to kill 50% of the cellular population present at the beginning of the experiments. This value is represented by C50 in the table. At day-3, the” for “The”
as §1, §2, §3, §9, §5

Caco-2 [9] = assay: as above; format: cell-based; conditions: for IC50: Homo sapiens, day-3, read-out: G50 (concentration inhibiting cell growth by 50%); for C50 (concentration needed to kill 50% of the cellular population present at the beginning): day-3
Protocol: as §6, §7
as §8, with “This was performed in order to be able to evaluate the toxic concentration of the drug needed to kill 50% of the cellular population present at the beginning of the experiments. This value is represented by C50 in the table. At day-3, the” for “The”
as §1, §2, §3, §9, §5

B16-F0 [10] = assay: as above; format: cell-based; conditions: for IC50: Mus musculus, B16F0, day-3, read-out: G50 (concentration inhibiting cell growth by 50%); for C50 (concentration needed to kill 50% of the cellular population present at the beginning): day-3
Protocol: as §6, §7
as §8, with “This was performed in order to be able to evaluate the toxic concentration of the drug needed to kill 50% of the cellular population present at the beginning of the experiments. This value is represented by C50 in the table. At day-3, the” for “The”
as §1, §2, §3, §9, §5

Compound	IC50 (CHO)	IC50 (MCF-7)	IC50 (K562)	IC50 (L1210)	IC50 (T24)	IC50 (MDA-MB-231 [1])	IC50 (HT-29 [2])	IC50 (DU-145 [3])	IC50 (Caco-2 [4])	IC50 (B16-F0 [5])	IC50 (MDA-MB-231 [6])	C50 (concentration needed to kill 50% of the cellular population present at the beginning) (MDA-MB-231 [6])	IC50 (HT-29 [7])	C50 (concentration needed to kill 50% of the cellular population present at the beginning) (HT-29 [7])	IC50 (DU-145 [8])	C50 (concentration needed to kill 50% of the cellular population present at the beginning) (DU-145 [8])	IC50 (Caco-2 [9])	C50 (concentration needed to kill 50% of the cellular population present at the beginning) (Caco-2 [9])	IC50 (B16-F0 [10])	C50 (concentration needed to kill 50% of the cellular population present at the beginning) (B16-F0 [10])
CCCCCCOc1ccc(NC(=O)N[C@@H](CC)CCl)cc1 [Example 28]	3.28 µM	10.4 µM	3.88 µM	7.42 µM	7.16 µM	8.75 µM	8.12 µM	9.46 µM	9.5 µM	8.26 µM										
CCCCCCOc1ccc(NC(=O)N[C@@H](C)CCl)cc1 [Example 27]	3.66 µM	7.99 µM	7.48 µM	8.2 µM	9.93 µM	9.08 µM	10.5 µM	12.6 µM	7.98 µM	8.45 µM										
CCCCCCc1ccc(NC(=O)N[C@H](C)CCl)cc1 [Example 6]											31.5 µM	43.3 µM	32.3 µM	44.5 µM	18.9 µM	39.5 µM	35.8 µM	44.2 µM	26.3 µM	31.3 µM
C[C@@H](CCl)NC(=O)Nc1ccc(C2CCCCC2)cc1 [Example 8]											27.6 µM	42.3 µM	17.1 µM	23.9 µM	8.6 µM	25.2 µM	15.4 µM	20.3 µM	21.8 µM	22.1 µM
CCCCCCOc1ccc(NC(=O)N[C@H](C)CCl)cc1 [Example 26]	2.63 µM	8.3 µM	2.68 µM	6.21 µM	7.14 µM	10.5 µM	9.55 µM	13.2 µM	8.57 µM	6.38 µM										
CCCCCCc1ccc(NC(=O)N[C@H](CC)CCl)cc1 [Example 10]											18 µM	40.6 µM	20.8 µM	36.8 µM	7.4 µM	27.2 µM	10.2 µM	13.7 µM	18.8 µM	24.9 µM
CCCCCCCc1ccc(NC(=O)N[C@@H](C)CCl)cc1 [Example 22]	3.8 µM	5.56 µM	6.96 µM	7.48 µM	6.15 µM	8.33 µM	7.69 µM	7.46 µM	7.61 µM	6.6 µM										
CCCCCCc1ccc(NC(=O)N[C@@H](C)CCl)cc1 [Example 7]											11.7 µM	31.9 µM	5.1 µM	12.8 µM	6.3 µM	11.8 µM	12.6 µM	21.1 µM	16.3 µM	18.2 µM
CC[C@H](CCl)NC(=O)Nc1ccc(C2CCCCC2)cc1 [Example 12]											19.6 µM	40.3 µM	13.6 µM	22.8 µM	7.3 µM	22.2 µM	10 µM	17.7 µM	17.3 µM	21.5 µM
C[C@H](CCl)NC(=O)Nc1ccc(C2CCCCC2)cc1 [Example 9]											27.5 µM	42.9 µM	19 µM	28.1 µM	7.8 µM	27.6 µM	8.6 µM	14.7 µM	15.4 µM	17.4 µM
CCCC(CCl)NC(=O)Nc1ccc(C2CCCCC2)cc1 (racemic) [Example 25]	2.12 µM	5.05 µM	4.93 µM	4.12 µM	4.24 µM	6.37 µM	3.03 µM	4.3 µM	6.04 µM	4.14 µM										
CCCCCCCc1ccc(NC(=O)N[C@H](CC)CCl)cc1 [Example 24]	3.14 µM	3.78 µM	2.9 µM	4.04 µM	3.61 µM	5.17 µM	2.94 µM	4.02 µM	4.85 µM	3.74 µM										
CCCCCCCc1ccc(NC(=O)N[C@@H](CC)CCl)cc1 [Example 23]	4.2 µM	4.2 µM	3.59 µM	5.67 µM	3.93 µM	6.12 µM	5.01 µM	4.89 µM	6.32 µM	4.77 µM										
CC[C@H](CCl)NC(=O)Nc1ccc(OC)c(OC)c1 [Example 20]	> 100 µM	> 100 µM	> 100 µM	> 100 µM	> 100 µM	> 100 µM	> 100 µM	> 100 µM	> 100 µM	> 100 µM										
CC[C@@H](CCl)NC(=O)Nc1ccc(C2CCCCC2)cc1 [Example 13]											16.3 µM	32.5 µM	9.8 µM	16.3 µM	6.9 µM	16.2 µM	9.9 µM	15.6 µM	15.5 µM	17.7 µM
CCCCCCc1ccc(NC(=O)NC(CCl)CCC)cc1 (racemic) [Example 14]											18.9 µM	32.3 µM	10.7 µM	20.3 µM	10.9 µM	19.6 µM	12.7 µM	21.1 µM	15.8 µM	21.3 µM
CCCCCCc1ccc(NC(=O)N[C@@H](CC)CCl)cc1 [Example 11]											15.1 µM	30.1 µM	13.1 µM	20.8 µM	4.6 µM	15.8 µM	7.5 µM	10.9 µM	14.1 µM	18.3 µM
